From patent publication US8481028B2, “Compositions for preparing a coffee beverage comprising hydrolysed chlorogenic acid” (Nestec S.A., priority 2008, dated 2013)

Columns and labels:
[1] = tested on: spray-dried preparation of Lactobacillus johnsonii (CNCM I-1225); experiment: Treatment of NESCAFE PROTECT with spray-dried preparation of L. johnsonii, HPLC
Description: (§1) To this solution, 10 mg of a spray-dried preparation of Lactobacillus johnsonii (CNCM I-1225) (3.3 E9 cfu/g) were added. The mixture was then incubated at 37° C. and samples were withdrawn at different reaction times. After centrifugation (3000 g, 5 min) and filtration (0.45 μm pore size syringe filters, Millipore SLHA 025 BS) the samples were analysed by HPLC.
(§2) Coffee samples were diluted to 1% w/w and analyzed by RP-HPLC on a CC 250/4 Nucleosil 100-5-C18 column (Macherey-Nagel). The eluent system was Millipore water, 0.1% TFA and CH3CN at a flow rate of 1 mL/min. The method allowed the simultaneous determination of caffeoyl quinic acids (CQA), feruloyl quinic acids (FQA), di-caffeoyl quinic acids (diCQA), feruloyl quinic acid-lactones, caffeic acid (CA) and ferulic acid (FA) (absorbance at 325 nm) using external standard calibration curves. Results were expressed relative to the reference at time 0 (t0) or to the reference at the same time without bacteria.

Chlorogenate esterase = experiment: Incubation of coffee extracts with chlorogenate esterase, HPLC; type: biochemical, Aspergillus japonicus
Description: as §2
Chlorogenate esterase (24 U/g), derived from Aspergillus japonicus (Kikkoman, Japan). Tannase from Aspergillus oryzae (Kikkoman, Japan) Preparation of Bacteria Cells
A solution of chlorogenate esterase (25 mg) in 200 μl phosphate buffer (pH 7.0) was added to 800 μl of a coffee solution (3%). The mixture was then incubated at 37° C. for 4 h, 16 h and 24 h. After reaction time, the enzymatic activity was stopped by heat treatment (3 min, 90° C.) and the mixture was filtered before analysis.

[2] = tested on: Lactobacillus johnsonii (CNCM I-1225); experiment: Treatment of coffee extracts with bacteria cells (L. johnsonii), HPLC
Description: as §2
(§3) Tested strains were harvested (centrifugation at 5000 g for 10 min) after having well reached stationary phase, corresponding to 16 hours of incubation in culture medium at 37° C. in anaerobic atmosphere without agitation. For a first activation of the strains, frozen stock cultures were inoculated in fresh media and grown overnight. This pre-culture was used to inoculate the culture.
(§4) After culture of bacteria and centrifugation, the pellets were resuspended in phosphate buffer (pH 7.0) at a concentration of 0.61 g/ml. To 200 μl of this cells preparation, 800 μl of a coffee solution (3%) was added and the mixture was incubated at 37° C. for 4 h, 16 h and 24 h.

[3] = tested on: concentrated preparation of Lactobacillus johnsonii (CNCM I-1225); experiment: Treatment of NESCAFE with concentrated preparation of L. johnsonii, HPLC
Description: 400 mg of NESCAFE SPECIAL FILTRE® (a dried extract of roasted coffee beans) were dissolved in 1 ml of boiling water and the solution was cooled to 37° C. at room temperature. To 250 μl of this coffee solution, different amounts of concentrated preparation of Lactobacillus johnsonii (50 μl, 100 μl, 350 μl, 750 μl) were added and the volume was adjusted to 1 ml with water. The mixtures were than incubated at 37° C. for 2 h and 4 h. After centrifugation (3000 g, 5 min) and filtration the samples were analysed by HPLC.
as §2

[4] = tested on: spray-dried preparation of Lactobacillus johnsonii (CNCM I-1225); experiment: Treatment of green coffee extract with spray-dried preparation of L. johnsonii, HPLC
Description: as §1, with “30 mg of a dried green coffee extract was dissolved in 1 ml phosphate buffer (50 mM, pH 7.0) or in 1 ml water. To” for “To”, “johnsonii” for “johnsonii (CNCM I-1225)”, “cfu/g) was” for “cfu/g) were”
as §2

[5] = tested on: Bifidobacterium lactis BB12 (CNCM I-3446); experiment: Treatment of coffee extracts with bacteria cells (B. lactis), HPLC
Description: as §2, §3, §4

[6] = tested on: Lactobacillus johnsonii (CNCM I-1225) extract (lysed cells); experiment: Treatment of NESCAFE PROTECT with L. johnsonii extract (lysed cells), HPLC; type: biochemical
Description: Cells of L. johnsonii (CNCM I-1225) were grown (7.0 E08 cfu/ml) and centrifuged (5000 g, 10 min), the pellets were resuspended in phosphate buffer (50 mM, pH 7.0) at a concentration of 0.61 g/ml. The cells were then lysed using the glass-beads method. 600 μl of cells preparation were put in screw-cap tubes and 600 μl of glass-beads were added at 0° C. The tubes were then put into a Mini-Beadbeater for 1 min of intense shaking, cooled in ice, and put another 1 min in the Mini-Beadbeater. […] Samples were withdrawn at different reaction times, centrifuged (3000 g, 5 min), filtered through 0.45 μm pore size syringe filters (Millipore SLHA 025 BS) and analysed by HPLC.
as §2

[7] = tested on: Lactobacillus johnsonii (CNCM I-1225) fresh cells; experiment: Treatment of NESCAFE PROTECT with L. johnsonii fresh cells, HPLC of chlorogenic and phenolic acids
Description: Cells of L. johnsonii (CNCM I-1225) were grown (7.0 E08 cfu/ml) and centrifuged (5000 g, 10 min), the pellets were resuspended in phosphate buffer (50 mM, pH 7.0) at a concentration of 0.61 g/ml. […] Samples were withdrawn at different reaction times, centrifuged (3000 g, 5 min) and filtered through 0.45 μm pore size syringe filters (Millipore SLHA 025 BS) and analysed by HPLC.
A reaction control was run in parallel under the same reaction conditions but without bacteria.
as §2

[8] = NESCAFE PROTECT + Chlorogenate esterase, 4 h
[9] = NESCAFE PROTECT + Chlorogenate esterase, 16 h
[10] = NESCAFE PROTECT + Chlorogenate esterase, 24 h
[11] = green coffee extract + Chlorogenate esterase, 4 h
[12] = green coffee extract + Chlorogenate esterase, 16 h
[13] = green coffee extract + Chlorogenate esterase, 24 h
[14] = NESCAFE PROTECT + Lactobacillus johnsonii, 4 h
[15] = NESCAFE PROTECT + Lactobacillus johnsonii, 16 h
[16] = NESCAFE PROTECT + Lactobacillus johnsonii, 24 h
[17] = green coffee extract + Lactobacillus johnsonii, 4 h
[18] = green coffee extract + Lactobacillus johnsonii, 16 h
[19] = green coffee extract + Lactobacillus johnsonii, 24 h
[20] = NESCAFE PROTECT + Bifidobacterium lactis, 4 h
[21] = NESCAFE PROTECT + Bifidobacterium lactis, 16 h
[22] = NESCAFE PROTECT + Bifidobacterium lactis, 24 h
[23] = green coffee extract + Bifidobacterium lactis, 4 h
[24] = green coffee extract + Bifidobacterium lactis, 16 h
[25] = green coffee extract + Bifidobacterium lactis, 24 h

## O=C(O)/C=C/c1ccc(O)c(O)c1 [CA, caffeic acid]
[1]; 2 h
  % relative to untreated control at t = 0: 3598%
[1]; 6 h
  % relative to untreated control at t = 0: 6140%
[1]; 24 h
  % relative to untreated control at t = 0: 7879%
Chlorogenate esterase; [8]
  % relative to untreated control at t = 0: 10879%
Chlorogenate esterase; [9]
  % relative to untreated control at t = 0: 10198%
Chlorogenate esterase; [10]
  % relative to untreated control at t = 0: 10750%
Chlorogenate esterase; [11]
  % relative to untreated control at t = 0: 18917%
Chlorogenate esterase; [12]
  % relative to untreated control at t = 0: 17275%
Chlorogenate esterase; [13]
  % relative to untreated control at t = 0: 18318%
[2]; [14]
  % relative to untreated control at t = 0: 7942%
[2]; [15]
  % relative to untreated control at t = 0: 9429%
[2]; [16]
  % relative to untreated control at t = 0: 9933%
[2]; [17]
  % relative to untreated control at t = 0: 12505%
[2]; [18]
  % relative to untreated control at t = 0: 17148%
[2]; [19]
  % relative to untreated control at t = 0: 18107%
[3]; cell amount 50 μL/1 mL, 2 h
  % relative to untreated control at t = 0: 1737%
[3]; cell amount 50 μL/1 mL, 4 h
  % relative to untreated control at t = 0: 1763%
[3]; cell amount 100 μL/1 mL, 2 h
  % relative to untreated control at t = 0: 2885%
[3]; cell amount 100 μL/1 mL, 4 h
  % relative to untreated control at t = 0: 2803%
[3]; cell amount 350 μL/1 mL, 2 h
  % relative to untreated control at t = 0: 5752%
[3]; cell amount 350 μL/1 mL, 4 h
  % relative to untreated control at t = 0: 4491%
[3]; cell amount 750 μL/1 mL, 2 h
  % relative to untreated control at t = 0: 7292%
[3]; cell amount 750 μL/1 mL, 4 h
  % relative to untreated control at t = 0: 5514%
[4]; 4 h
  % relative to untreated control at t = 0: 2673%
[4]; 6 h
  % relative to untreated control at t = 0: 3762%
[4]; 16 h
  % relative to untreated control at t = 0: 5182%
[4]; 24 h
  % relative to untreated control at t = 0: 6145%
[5]; [20]
  % relative to untreated control at t = 0: 968%
[5]; [21]
  % relative to untreated control at t = 0: 2258%
[5]; [22]
  % relative to untreated control at t = 0: 2840%
[5]; [23]
  % relative to untreated control at t = 0: 1521%
[5]; [24]
  % relative to untreated control at t = 0: 4182%
[5]; [25]
  % relative to untreated control at t = 0: 5283%
[6]; 2 h, cell preparation 100.0 uL
  Concentration in % relative to untreated reference at t = 0: 10729%
[6]; 2 h, cell preparation 350.0 uL
  Concentration in % relative to untreated reference at t = 0: 13901%
[6]; 6 h, cell preparation 100.0 uL
  Concentration in % relative to untreated reference at t = 0: 12581%
[6]; 6 h, cell preparation 350.0 uL
  Concentration in % relative to untreated reference at t = 0: 16300%
[7]; 6 h, cell preparation 100 uL
  Concentration in % relative to untreated reference at t = 0: 10111%
[7]; 6 h, cell preparation 350 uL
  Concentration in % relative to untreated reference at t = 0: 14282%
[7]; 6 h, cell preparation 750 uL
  Concentration in % relative to untreated reference at t = 0: 13215%
[7]; 24 h, cell preparation 100 uL
  Concentration in % relative to untreated reference at t = 0: 13661%
[7]; 24 h, cell preparation 350 uL
  Concentration in % relative to untreated reference at t = 0: 15981%
[7]; 24 h, cell preparation 750 uL
  Concentration in % relative to untreated reference at t = 0: 13238%

## di-caffeoyl quinic acids [diCQA]
Chlorogenate esterase; [8]
  % relative to untreated control at t = 0: 0%
Chlorogenate esterase; [9]
  % relative to untreated control at t = 0: 0%
Chlorogenate esterase; [10]
  % relative to untreated control at t = 0: 1%
Chlorogenate esterase; [11]
  % relative to untreated control at t = 0: 0%
Chlorogenate esterase; [12]
  % relative to untreated control at t = 0: 0%
Chlorogenate esterase; [13]
  % relative to untreated control at t = 0: 0%
[2]; [14]
  % relative to untreated control at t = 0: 18%
[2]; [15]
  % relative to untreated control at t = 0: 2%
[2]; [16]
  % relative to untreated control at t = 0: 2%
[2]; [17]
  % relative to untreated control at t = 0: 35%
[2]; [18]
  % relative to untreated control at t = 0: 6%
[2]; [19]
  % relative to untreated control at t = 0: 3%
[3]; cell amount 50 μL/1 mL, 2 h
  % relative to untreated control at t = 0: 86%
[3]; cell amount 50 μL/1 mL, 4 h
  % relative to untreated control at t = 0: 75%
[3]; cell amount 100 μL/1 mL, 2 h
  % relative to untreated control at t = 0: 68%
[3]; cell amount 100 μL/1 mL, 4 h
  % relative to untreated control at t = 0: 56%
[3]; cell amount 350 μL/1 mL, 2 h
  % relative to untreated control at t = 0: 23%
[3]; cell amount 350 μL/1 mL, 4 h
  % relative to untreated control at t = 0: 15%
[3]; cell amount 750 μL/1 mL, 2 h
  % relative to untreated control at t = 0: 6%
[3]; cell amount 750 μL/1 mL, 4 h
  % relative to untreated control at t = 0: 6%
[4]; 4 h
  % relative to untreated control at t = 0: 67%
[4]; 6 h
  % relative to untreated control at t = 0: 53%
[4]; 16 h
  % relative to untreated control at t = 0: 32%
[4]; 24 h
  % relative to untreated control at t = 0: 20%
[5]; [20]
  % relative to untreated control at t = 0: 91%
[5]; [21]
  % relative to untreated control at t = 0: 72%
[5]; [22]
  % relative to untreated control at t = 0: 67%
[5]; [23]
  % relative to untreated control at t = 0: 85%
[5]; [24]
  % relative to untreated control at t = 0: 70%
[5]; [25]
  % relative to untreated control at t = 0: 64%
[6]; 2 h, cell preparation 100.0 uL
  Concentration in % relative to untreated reference at t = 0: 8%
[6]; 2 h, cell preparation 350.0 uL
  Concentration in % relative to untreated reference at t = 0: 1%
[6]; 6 h, cell preparation 100.0 uL
  Concentration in % relative to untreated reference at t = 0: 1%
[6]; 6 h, cell preparation 350.0 uL
  Concentration in % relative to untreated reference at t = 0: 1%
[7]; 6 h, cell preparation 100 uL
  Concentration in % relative to untreated reference at t = 0: 23%
[7]; 6 h, cell preparation 350 uL
  Concentration in % relative to untreated reference at t = 0: 0%
[7]; 6 h, cell preparation 750 uL
  Concentration in % relative to untreated reference at t = 0: 0%
[7]; 24 h, cell preparation 100 uL
  Concentration in % relative to untreated reference at t = 0: 2%
[7]; 24 h, cell preparation 350 uL
  Concentration in % relative to untreated reference at t = 0: 0%
[7]; 24 h, cell preparation 750 uL
  Concentration in % relative to untreated reference at t = 0: 0%
